According to ChEMBL document CHEMBL5512655, “Discovery of indolylacryloyl-derived oxacins as novel potential broad-spectrum antibacterial candidates” (Eur J Med Chem, 2024):
In brackets after ≈: the same amount, converted by molar mass.

Experiments:
Type in all cases: functional
Staphylococcus aureus [1] = assay: Antibacterial activity against methicillin-resistant Staphylococcus aureus N315 assessed as inhibition of bacterial growth measured after 24 hrs incubation
Escherichia coli [2] = assay: Antibacterial activity against Escherichia coli assessed as inhibition of bacterial growth measured after 24 hrs incubation
Pseudomonas aeruginosa [3] = assay: Antibacterial activity against Pseudomonas aeruginosa assessed as inhibition of bacterial growth measured after 24 hrs incubation
Staphylococcus aureus [4] = assay: Antibacterial activity against Staphylococcus aureus ATCC 25923 assessed as inhibition of bacterial growth measured after 24 hrs incubation
Acinetobacter baumannii = assay: Antibacterial activity against Acinetobacter baumannii assessed as inhibition of bacterial growth measured after 24 hrs incubation
Pseudomonas aeruginosa [5] = assay: Antibacterial activity against Pseudomonas aeruginosa ATCC 27853 assessed as inhibition of bacterial growth measured after 24 hrs incubation
Staphylococcus aureus [6] = assay: Antibacterial activity against Staphylococcus aureus assessed as inhibition of bacterial growth measured after 24 hrs incubation
Staphylococcus aureus [7] = assay: Antibacterial activity against Staphylococcus aureus ATCC 29213 assessed as inhibition of bacterial growth measured after 24 hrs incubation
Escherichia coli [8] = assay: Antibacterial activity against Escherichia coli ATCC 25922 assessed as inhibition of bacterial growth measured after 24 hrs incubation
Klebsiella pneumoniae = assay: Antibacterial activity against Klebsiella pneumonia assessed as inhibition of bacterial growth measured after 24 hrs incubation
Enterococcus faecalis = assay: Antibacterial activity against Enterococcus faecalis assessed as inhibition of bacterial growth measured after 24 hrs incubation

SMILES | MIC (Staphylococcus aureus [1]) [µg/mL] | MIC (Escherichia coli [2]) [µg/mL] | MIC (Pseudomonas aeruginosa [3]) [µg/mL] | MIC (Staphylococcus aureus [4]) [µg/mL] | MIC (Acinetobacter baumannii) [µg/mL] | MIC (Pseudomonas aeruginosa [5]) [µg/mL] | MIC (Staphylococcus aureus [6]) [µg/mL] | MIC (Staphylococcus aureus [7]) [µg/mL] | MIC (Escherichia coli [8]) [µg/mL] | MIC (Klebsiella pneumoniae) [µg/mL] | MIC (Enterococcus faecalis) [µg/mL]
CCCCn1cc(/C=C(\C#N)C(=O)N2CCN(c3cc4c(cc3F)c(=O)c(C(=O)O)cn4CC)CC2)c2ccccc21 | 2 (≈ 3.51 µM) | 4 (≈ 7.02 µM) | 1 (≈ 1.76 µM) | 4 (≈ 7.02 µM) | 2 (≈ 3.51 µM) | 1 (≈ 1.76 µM) | 2 (≈ 3.51 µM) | 1 (≈ 1.76 µM) | 2 (≈ 3.51 µM) | 0.5 (≈ 0.878 µM) | 2 (≈ 3.51 µM)
CCn1cc(C(=O)O)c(=O)c2cc(F)c(N3CCNCC3)cc21 [NORFLOXACIN] | 0.5 (≈ 1.57 µM) | 2 (≈ 6.26 µM) | 4 (≈ 12.5 µM) | 2 (≈ 6.26 µM) | 1 (≈ 3.13 µM) | 1 (≈ 3.13 µM) | 0.5 (≈ 1.57 µM) | 1 (≈ 3.13 µM) | 0.5 (≈ 1.57 µM) | 0.5 (≈ 1.57 µM) | 0.5 (≈ 1.57 µM)
CCn1cc(C(=O)O)c(=O)c2cc(F)c(N3CCN(C(=O)/C(C#N)=C/c4c[nH]c5ccccc45)CC3)cc21 | 0.5 (≈ 0.974 µM) | 0.5 (≈ 0.974 µM) | 1 (≈ 1.95 µM) | 1 (≈ 1.95 µM) | 0.25 (≈ 0.487 µM) | 0.5 (≈ 0.974 µM) | 4 (≈ 7.79 µM) | 0.5 (≈ 0.974 µM) | 0.25 (≈ 0.487 µM) | 0.25 (≈ 0.487 µM) | 0.25 (≈ 0.487 µM)
CCn1cc(C(=O)O)c(=O)c2cc(F)c(N3CCN(C(=O)/C(C#N)=C/c4cn(CC(=O)O)c5ccccc45)CC3)cc21 | 0.5 (≈ 0.875 µM) | 0.5 (≈ 0.875 µM) | 0.5 (≈ 0.875 µM) | 0.5 (≈ 0.875 µM) | 0.25 (≈ 0.437 µM) | 0.5 (≈ 0.875 µM) | 2 (≈ 3.5 µM) | 1 (≈ 1.75 µM) | 0.5 (≈ 0.875 µM) | 0.25 (≈ 0.437 µM) | 0.5 (≈ 0.875 µM)
CCn1cc(C(=O)O)c(=O)c2cc(F)c(N3CCN(C(=O)/C(C#N)=C/c4cn(Cc5ccccc5Cl)c5ccccc45)CC3)cc21 | 32 (≈ 50.1 µM) | 1 (≈ 1.57 µM) | 16 (≈ 25.1 µM) | 32 (≈ 50.1 µM) | 8 (≈ 12.5 µM) | 1 (≈ 1.57 µM) | 256 (≈ 401 µM) | 64 (≈ 100 µM) | 0.25 (≈ 0.392 µM) | 32 (≈ 50.1 µM) | 16 (≈ 25.1 µM)
CCn1cc(C(=O)O)c(=O)c2cc(F)c(N3CCN(C(=O)/C(C#N)=C/c4c[nH]c5cc(F)ccc45)CC3)cc21 | 8 (≈ 15.1 µM) | 4 (≈ 7.53 µM) | 1 (≈ 1.88 µM) | 4 (≈ 7.53 µM) | 2 (≈ 3.76 µM) | 1 (≈ 1.88 µM) | 1 (≈ 1.88 µM) | 2 (≈ 3.76 µM) | 2 (≈ 3.76 µM) | 0.5 (≈ 0.941 µM) | 8 (≈ 15.1 µM)
CCn1cc(C(=O)O)c(=O)c2cc(F)c(N3CCN(C(=O)/C(C#N)=C/c4cn(CCN5CCOCC5)c5ccccc45)CC3)cc21 | 0.25 (≈ 0.399 µM) | 1 (≈ 1.6 µM) | 1 (≈ 1.6 µM) | 4 (≈ 6.38 µM) | 0.5 (≈ 0.798 µM) | 1 (≈ 1.6 µM) | 0.5 (≈ 0.798 µM) | 0.5 (≈ 0.798 µM) | 2 (≈ 3.19 µM) | 2 (≈ 3.19 µM) | 0.25 (≈ 0.399 µM)
CCn1cc(/C=C(\C#N)C(=O)N2CCN(c3cc4c(cc3F)c(=O)c(C(=O)O)cn4CC)CC2)c2ccccc21 | 0.25 (≈ 0.462 µM) | 64 (≈ 118 µM) | 4 (≈ 7.39 µM) | 0.25 (≈ 0.462 µM) | 1 (≈ 1.85 µM) | 1 (≈ 1.85 µM) | 0.25 (≈ 0.462 µM) | 0.25 (≈ 0.462 µM) | 2 (≈ 3.69 µM) | 0.25 (≈ 0.462 µM) | 0.5 (≈ 0.923 µM)
CCn1cc(C(=O)O)c(=O)c2cc(F)c(N3CCN(C(=O)/C(C#N)=C/c4cn(CC=C(C)C)c5ccccc45)CC3)cc21 | 8 (≈ 13.8 µM) | 64 (≈ 110 µM) | 8 (≈ 13.8 µM) | 4 (≈ 6.88 µM) | 2 (≈ 3.44 µM) | 1 (≈ 1.72 µM) | 1 (≈ 1.72 µM) | 4 (≈ 6.88 µM) | 0.5 (≈ 0.86 µM) | 0.25 (≈ 0.43 µM) | 1 (≈ 1.72 µM)
CCOC(=O)Cn1cc(/C=C(\C#N)C(=O)N2CCN(c3cc4c(cc3F)c(=O)c(C(=O)O)cn4CC=C(C)C)CC2)c2ccccc21 | 8 (≈ 12.5 µM) | 32 (≈ 50 µM) | 16 (≈ 25 µM) | 16 (≈ 25 µM) | 16 (≈ 25 µM) | 16 (≈ 25 µM) | 16 (≈ 25 µM) | 8 (≈ 12.5 µM) | 0.5 (≈ 0.782 µM) | 1 (≈ 1.56 µM) | 0.25 (≈ 0.391 µM)
